Among the data in PubChem BioAssay AID1259407 (Chemical Carcinogenesis Research Information System (CCRIS), 2018) are mutagenic call values, retold here.

This data set has as its system CCRIS mutagenicity, Ames/micronucleus/aberration tests. Nature of the data set: CCRIS mutagenicity studies.
Setting [1] is: Test System: AMES SALMONELLA TYPHIMURIUM, Strain/Indicator: TA98, Metabolic Activation: NONE, Method: PREINCUBATION
Where [2] appears, read: Test System: AMES SALMONELLA TYPHIMURIUM, Strain/Indicator: TA100, Metabolic Activation: NONE, Method: PREINCUBATION
Where [3] appears, read: Test System: AMES SALMONELLA TYPHIMURIUM, Strain/Indicator: TA1535, Metabolic Activation: NONE, Method: PREINCUBATION
Where [4] appears, read: Test System: AMES SALMONELLA TYPHIMURIUM, Strain/Indicator: TA100, Metabolic Activation: RAT, LIVER, S-9, AROCLOR 1254, Method: PREINCUBATION

Calls of active or inactive are those of the source. No rule for the calls is given here.

Regarding `C=C(C)/C([O-])=N/[N+](C)(C)CC(C)O` (stereo not drawn), the mutagenic call runs as follows: (Test System: AMES SALMONELLA TYPHIMURIUM, Strain/Indicator: TA97, Metabolic Activation: HAMSTER, LIVER, S-9, AROCLOR 1254 (10 OR 30%), Method: PREINCUBATION) “inactive; negative”; (Test System: AMES SALMONELLA TYPHIMURIUM, Strain/Indicator: TA97, Metabolic Activation: NONE, Method: PREINCUBATION) “inactive; negative”; (Test System: AMES SALMONELLA TYPHIMURIUM, Strain/Indicator: TA97, Metabolic Activation: RAT, LIVER, S-9, AROCLOR 1254 (10 OR 30%), Method: PREINCUBATION) “inactive; negative”; (Test System: AMES SALMONELLA TYPHIMURIUM, Strain/Indicator: TA98, Metabolic Activation: HAMSTER, LIVER, S-9, AROCLOR 1254 (10 OR 30%), Method: PREINCUBATION) “inactive; negative”; under setting [1], “inactive; negative”; (Test System: AMES SALMONELLA TYPHIMURIUM, Strain/Indicator: TA98, Metabolic Activation: RAT, LIVER, S-9, AROCLOR 1254 (10 OR 30%), Method: PREINCUBATION) “inactive; negative”. Further, the mutagenic call (Test System: AMES SALMONELLA TYPHIMURIUM, Strain/Indicator: TA100, Metabolic Activation: HAMSTER, LIVER, S-9, AROCLOR 1254 (10 OR 30%), Method: PREINCUBATION) was “inactive; negative”; the mutagenic call under setting [2] was “inactive; negative”; the mutagenic call (Test System: AMES SALMONELLA TYPHIMURIUM, Strain/Indicator: TA100, Metabolic Activation: RAT, LIVER, S-9, AROCLOR 1254 (10 OR 30%), Method: PREINCUBATION) is “inactive; negative”; the mutagenic call (Test System: AMES SALMONELLA TYPHIMURIUM, Strain/Indicator: TA1535, Metabolic Activation: HAMSTER, LIVER, S-9, AROCLOR 1254 (10 OR 30%), Method: PREINCUBATION) was “inactive; negative”; the mutagenic call under setting [3] is “inactive; negative”; the mutagenic call (Test System: AMES SALMONELLA TYPHIMURIUM, Strain/Indicator: TA1535, Metabolic Activation: RAT, LIVER, S-9, AROCLOR 1254 (10 OR 30%), Method: PREINCUBATION) was “inactive; negative”.

On to `CC(Cl)(Cl)Cl`, for which the mutagenic call was “active; positive” (End Point: IN VITRO CHROMOSOMAL ABERRATIONS, Test System: CHINESE HAMSTER OVARY CELLS, Metabolic Activation: NONE); “inactive; negative” (End Point: IN VITRO CHROMOSOMAL ABERRATIONS, Test System: CHINESE HAMSTER OVARY CELLS, Metabolic Activation: RAT, LIVER, S-9, AROCLOR 1254); “inactive; negative (structural changes and ploidy showed weak response without dose respon” (End Point: In vitro chromosomal aberrations, Test System: Chinese hamster lung (CHL/IU) cells, Metabolic Activation: Rat, Liver, S9, Phenobarbital and 5,6-benzoflavone); “active; positive” (Test System: AMES SALMONELLA TYPHIMURIUM, Strain/Indicator: TA97, Metabolic Activation: NONE, Method: STANDARD PLATE); “active; positive” (Test System: AMES SALMONELLA TYPHIMURIUM, Strain/Indicator: TA97, Metabolic Activation: RAT, LIVER S-9, AROCLOR 1254, Method: STANDARD PLATE); “active; positive” (Test System: AMES SALMONELLA TYPHIMURIUM, Strain/Indicator: TA98, Metabolic Activation: NONE, Method: STANDARD PLATE). Further, the mutagenic call is “active; positive” (Test System: AMES SALMONELLA TYPHIMURIUM, Strain/Indicator: TA98, Metabolic Activation: RAT, LIVER S-9, AROCLOR 1254, Method: STANDARD PLATE); “active; positive” (Test System: AMES SALMONELLA TYPHIMURIUM, Strain/Indicator: TA100, Metabolic Activation: NONE, Method: STANDARD PLATE); “active; positive” (Test System: AMES SALMONELLA TYPHIMURIUM, Strain/Indicator: TA100, Metabolic Activation: NONE, Method: VAPOR CHAMBER); “inactive; negative” (Test System: AMES SALMONELLA TYPHIMURIUM, Strain/Indicator: TA100, Metabolic Activation: RAT, LIVER S-9, AROCLOR 1254, Method: STANDARD PLATE); “active; positive” (Test System: AMES SALMONELLA TYPHIMURIUM, Strain/Indicator: TA100, Metabolic Activation: RAT, LIVER, S-9, AROCLOR 1254, Method: DESICCATOR); “active; positive” (Test System: AMES SALMONELLA TYPHIMURIUM, Strain/Indicator: TA100, Metabolic Activation: RAT, LIVER, S-9, AROCLOR 1254, Method: VAPOR CHAMBER). The mutagenic call reads like this: (Test System: AMES SALMONELLA TYPHIMURIUM, Strain/Indicator: TA104, Metabolic Activation: NONE, Method: STANDARD PLATE) “inactive; negative”; (Test System: AMES SALMONELLA TYPHIMURIUM, Strain/Indicator: TA104, Metabolic Activation: RAT, LIVER, S-9, AROCLOR 1254, Method: STANDARD PLATE) “active; positive”; (Test System: AMES SALMONELLA TYPHIMURIUM, Strain/Indicator: TA1535, Metabolic Activation: NONE, Method: VAPOR CHAMBER) “active; positive”; (Test System: AMES SALMONELLA TYPHIMURIUM, Strain/Indicator: TA1535, Metabolic Activation: RAT, LIVER, S-9, AROCLOR 1254, Method: VAPOR CHAMBER) “active; positive”.

Turning to `c1cc(OCC2CO2)cc(OCC2CO2)c1` (stereo not drawn), the mutagenic call (End Point: IN VITRO CHROMOSOMAL ABERRATIONS, Test System: CHO CELLS, Metabolic Activation: NONE) was “active; positive”; the mutagenic call (End Point: IN VITRO CHROMOSOMAL ABERRATIONS, Test System: CHO CELLS, Metabolic Activation: RAT, LIVER, S-9, AROCLOR 1254) was “active; positive; weak response”; the mutagenic call (Test System: AMES SALMONELLA TYPHIMURIUM, Strain/Indicator: TA98, Metabolic Activation: HAMSTER, LIVER, S-9, AROCLOR 1254, Method: PREINCUBATION) was “inactive; negative”; the mutagenic call under setting [1] is “inactive; negative”; the mutagenic call (Test System: AMES SALMONELLA TYPHIMURIUM, Strain/Indicator: TA98, Metabolic Activation: RAT, LIVER, S-9, AROCLOR 1254, Method: PREINCUBATION) is “inactive; negative”; the mutagenic call (Test System: AMES SALMONELLA TYPHIMURIUM, Strain/Indicator: TA100, Metabolic Activation: HAMSTER, LIVER, S-9, AROCLOR 1254, Method: PREINCUBATION) is “active; positive”. The mutagenic call reads like this: under setting [2], “active; positive”; (Test System: AMES SALMONELLA TYPHIMURIUM, Strain/Indicator: TA100, Metabolic Activation: RAT, LIVER, S-9, AROCLOR 1254 (10%), Method: PREINCUBATION) “active; positive”; under setting [4], “active; positive”; (Test System: AMES SALMONELLA TYPHIMURIUM, Strain/Indicator: TA1535, Metabolic Activation: HAMSTER, LIVER, S-9, AROCLOR 1254 (10%), Method: PREINCUBATION) “active; positive”; (Test System: AMES SALMONELLA TYPHIMURIUM, Strain/Indicator: TA1535, Metabolic Activation: HAMSTER, LIVER, S-9, AROCLOR 1254, Method: PREINCUBATION) “active; positive”; under setting [3], “active; positive”. Also, the mutagenic call reads like this: (Test System: AMES SALMONELLA TYPHIMURIUM, Strain/Indicator: TA1535, Metabolic Activation: RAT, LIVER, S-9, AROCLOR 1254 (10%), Method: PREINCUBATION) “active; positive”; (Test System: AMES SALMONELLA TYPHIMURIUM, Strain/Indicator: TA1535, Metabolic Activation: RAT, LIVER, S-9, AROCLOR 1254, Method: PREINCUBATION) “active; positive”; (Test System: AMES SALMONELLA TYPHIMURIUM, Strain/Indicator: TA1537, Metabolic Activation: HAMSTER, LIVER, S-9, AROCLOR 1254, Method: PREINCUBATION) “inactive; negative”; (Test System: AMES SALMONELLA TYPHIMURIUM, Strain/Indicator: TA1537, Metabolic Activation: NONE, Method: PREINCUBATION) “inactive; negative”; (Test System: AMES SALMONELLA TYPHIMURIUM, Strain/Indicator: TA1537, Metabolic Activation: RAT, LIVER, S-9, AROCLOR 1254, Method: PREINCUBATION) “inactive; negative”; (Test System: MOUSE LYMPHOMA, Strain/Indicator: L5178Y (HPRT), Metabolic Activation: NONE, Method: SUSPENSION/PLATE) “inactive; negative”. Moreover, the mutagenic call (Test System: MOUSE LYMPHOMA, Strain/Indicator: L5178Y (TK+/TK-), Metabolic Activation: NONE, Method: SUSPENSION/PLATE) is “active; positive”.

Take `Clc1ccc2ccc3cccc4ccc1c2c34`: the mutagenic call by setting is: (Test System: AMES SALMONELLA TYPHIMURIUM, Strain/Indicator: TA98, Metabolic Activation: RAT, LIVER, S-9, AROCLOR 1254, Method: STANDARD PLATE) “active; positive”; (Test System: AMES SALMONELLA TYPHIMURIUM, Strain/Indicator: TA100, Metabolic Activation: RAT, LIVER, S-9, AROCLOR 1254, Method: STANDARD PLATE) “active; positive”.

Take `CC(C)COC(=O)NO`: the mutagenic call (Test System: E. COLI, Strain/Indicator: WP2 UVRA, Metabolic Activation: NONE, Method: FLUCTUATION TEST) was “active; positive”.

Take `CCCC(=O)OCc1cccc([N+](=O)[O-])c1`: the mutagenic call runs as follows: under setting [1], “inactive; negative”; under setting [2], “inactive; negative”; under setting [4], “inactive; negative”.
